Experimental data taken from US20250256096A1 (priority 2022, published 2025).
Where “and” joins values, the source holds several entries; their conditions need not be identical. Identical values can stand only once. Like-named read-outs stand apart in the source and are kept apart here.

Tested on: cervical vagus nerve
Type: in vivo, Adult male Lewis rats
Settings: for vagal nerve activity as detected by spike count analysis of electroneurograms: application directly to the cervical vagus nerve; for vagal nerve activity as detected by spike count analysis of electroneurograms / nerve firing of the main cervical vagus nerve: result in words; for nerve firing of the main cervical vagus nerve: intradermal application to trigeminal dermatomes on the forehead
[1] = intradermal application on forehead near trigeminal nerve endings, high (100 nM) concentration, mean +/- SEM

Compound | vagal nerve activity as detected by spike count analysis of electroneurograms | cervical vagus nerve average spike count (high (100 nM) concentration applied directly on the cervical vagus nerve, mean +/- SEM) | cervical vagus nerve average spike count [1] | nerve firing of the main cervical vagus nerve | cervical vagus nerve average spike count (low (10 nM) concentration applied directly on the cervical vagus nerve, mean +/- SEM, POST 60-s segment) | cervical vagus nerve average spike count (intradermal application on forehead near trigeminal nerve endings, low (10 nM) concentration, mean +/- SEM) | effect on spike count (low (10 nM) or high (100 nM) concentrations directly on the cervical vagus nerve, data not shown) | cervical vagus nerve average spike count (rat, in vivo)
COc1cc(CNC(=O)CCCC/C=C/C(C)C)ccc1O [Capsaicin, capsaicin] | increased | 14.5+/−0.7 spikes/second | 13.5+/−0.5 spikes/second | activated | 7.6+/−0.7 spikes/second |  |  | 
CC(C)C[C@H](NC(=O)c1cc2ccccc2s1)C(=O)N1CCN(C(=O)[C@H](CO)NS(=O)(=O)c2ccc(Cl)cc2Cl)CC1 [GSK1016790A] | increased |  | 13.8+/−1.0 spikes/second | activated |  | 7.0+/−0.5 spikes/second | no effect | 
WS-12 | increased |  |  | activated |  |  |  | 
capsaicin |  |  |  |  |  |  |  | 11.2+/−0.6 spikes/second and 17.7+/−0.8 spikes/second and 9.6+/−0.5 spikes/second
